Columns and labels:
HeLa cells = experiment: TIRF microscopy of PIP3 and PI(3,4)P2 reporters, HeLa; assay type: cell-based, human
Description: Phosphoinositide reporters used were GFP-PH-ARNO^I303Ex2 (PIP3 reporter[41]) and mCherry-cPH-TAPP1x3 (PI(3,4)P2 reporter[41]). TIRF microscopy allows selective imaging of the small cell volume, including the plasma membrane, directly adjacent to the coverslip onto which cells have been seeded. HeLa or A549 cells were seeded in Matrigel-coated (Corning #354230; diluted in Opti-MEM at 1:50) 8-well chamber slides (glass bottom, 1.55 refractive index; Thermo Fisher Scientific #155409) at a density of 5,000 cells/well. […]
Image analyses of total reporter intensities were performed with the Fiji open source image analysis package. The region of interest (ROI) corresponding to the footprint of the individual cell across time points were defined using minimal intensity projection to select only pixels present across all time points, following prior subtraction of camera noise (rolling ball method, radius = 500 pixels) and xy drift correction, intensity levels over time were measured. […] All other quantifications were performed using the open source software R/RStudio. The values plotted in Fig. 3d (iii) represent mean±SEM, following signal scaling to minimum and maximum values of the normalised fluorescence intensity for each time point (Fn(t)). […]

[1] = test system: PI3Kα-KO MEFs transiently transfected with PIK3CA constructs; experiment: pAKT S473 in PI3Kα-KO MEFs transfected with p110α-WT or p110α-mutants; assay type: cell-based, mouse; conditions: 1938 5 μM
Source text: Flag-PIK3R1 (a kind gift of Neil Vasan), PIK3CA-WT and mutant PIK3CA (D603K, L1006R, F1016S and L1006R/F1016S) were cloned into pcDNA3.4TOPO. pcDNA3-eGFP was used as a control for transfection efficiency and is available on Addgene repository upon request (Plasmid #13031). The mutations in PIK3CA were introduced by site-directed mutagenesis according to published commercial protocols using NEBuilder HiFi DNA Assembly Master Mix (NEB E2621). For each mutation, a pair of primers were designed to incorporate a mutation within the gene, with the resulting PCR products containing a 20 bp overlap and the desired mutations. The DpnI-treated and purified PCR products were combined with the linearized vector and treated with the NEBuilder HiFi DNA Assembly Master Mix. Following transformation, single colonies were grown and purified with QIAprep spin Miniprep kit (Qiagen 27106). All plasmids were sequenced for verification.
eGFP, Flag-PIK3R1, PIK3CA-WT and mutant PIK3CA (D603K, L1006R, F1016S, L1006R/F1016S) plasmids were used for transient transfection. Pik3ca-KO MEFs cells were seeded at 70-80% confluency in 6-well plate at 100,000 cells per well. […]

SMILES: CCN1CCN(c2ccc(Nc3cc(Nc4cccc5c4N(C(C)=O)CC5)ccn3)cc2)CC1 [Compound 1938]
- membrane-associated PI(3,4)P2 (biosensor) (HeLa cells): generation of membrane-associated PI(3,4)P2
- plasma membrane PIP3 (biosensor) (HeLa cells): acute and BYL719-sensitive burst of PIP3
- pAKT^S473 stimulation after expression of WT PI3Kα [1]: restored 1938-mediated pAKT^S473 stimulation
- pAKT^S473 induction after expression of 1938-resistant p110α-mutants ([1]; D603K, L1006R, F1016S, L1006R/F1016S): none of the p110α-mutants resistant to 1938-activation in in vitro kinase assays showed a response

— article PMC7614683, “A small molecule PI3Kα activator for cardioprotection and neuroregeneration” (Nature, 2023)
